Data on 15 compounds can be found in patent US10626081B2, “Farnesoid X receptor agonists and uses thereof” (Metacrine, Inc., priority 2015, dated 2020).

Each structure is given as a SMILES string.

Assay [1] has as its target T1, FXR (Homo sapiens, UniProt Q96RI1).
T1 construct: expressed in transfected cells; host or cells: CV-1 cells
T1 sequence (Q96RI1 1-486): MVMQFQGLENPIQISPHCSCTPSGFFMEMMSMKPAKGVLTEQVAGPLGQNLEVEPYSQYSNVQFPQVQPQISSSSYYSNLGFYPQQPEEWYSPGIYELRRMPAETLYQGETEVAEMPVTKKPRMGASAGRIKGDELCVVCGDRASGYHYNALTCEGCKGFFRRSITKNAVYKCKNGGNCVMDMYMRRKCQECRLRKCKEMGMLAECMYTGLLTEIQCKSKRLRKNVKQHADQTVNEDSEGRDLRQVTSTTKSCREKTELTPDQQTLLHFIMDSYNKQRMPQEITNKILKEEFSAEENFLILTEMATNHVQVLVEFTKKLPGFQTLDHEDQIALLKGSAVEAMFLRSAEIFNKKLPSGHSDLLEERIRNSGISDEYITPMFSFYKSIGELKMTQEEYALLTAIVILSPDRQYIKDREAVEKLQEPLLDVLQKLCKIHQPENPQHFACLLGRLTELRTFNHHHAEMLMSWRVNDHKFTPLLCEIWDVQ
T1 sequence (P19793 1-462 partner): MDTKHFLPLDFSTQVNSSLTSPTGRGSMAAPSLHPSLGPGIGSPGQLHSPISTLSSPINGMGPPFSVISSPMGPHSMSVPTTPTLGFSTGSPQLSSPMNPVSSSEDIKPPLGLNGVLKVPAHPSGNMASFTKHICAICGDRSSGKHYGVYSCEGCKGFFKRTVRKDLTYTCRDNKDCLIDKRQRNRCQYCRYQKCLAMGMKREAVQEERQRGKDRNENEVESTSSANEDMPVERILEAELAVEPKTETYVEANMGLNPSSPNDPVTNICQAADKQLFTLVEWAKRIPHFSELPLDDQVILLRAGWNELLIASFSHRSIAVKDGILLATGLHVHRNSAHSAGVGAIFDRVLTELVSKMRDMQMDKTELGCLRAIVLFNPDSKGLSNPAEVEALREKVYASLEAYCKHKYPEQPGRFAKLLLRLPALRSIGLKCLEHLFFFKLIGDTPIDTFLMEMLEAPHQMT
Briefly: In Vitro FXR Assay (PGL3): luciferase reporter in transfected CV-1 cells. Type of assay: cell-based. As to conditions: CV-1 cells transfected with hFXR, hRXR, PGL3-ECRE*6-luc; 18 h incubation; luminescence. How it is done: Example B-1: In Vitro FXR Assay (PGL3)
CV-1 cells were seeded at a density of 2,000,000 cells in a T175 flask with DMEM+10% charcoal double-stripped FBS and incubated at 37° C. in a 5% CO2 for 18 h (O/N).
After 18 h of incubation, the medium in the T175 flask was changed with fresh DMEM+10% charcoal super-stripped serum.
To prepare the transfection reaction mixture, the transfection reagent (X-tremeGENE HP from Roche, Cat #06 366 236 001) was added in to a 1.5 mL microcentrifuge tube labelled “A” at a ratio of 1:3 (DNA in transfection reagent in μL). OptiMEM medium (Life Technologies, Cat #31985-062) was added accordingly to provide a total volume of 1 mL. The transfection reaction mixture was then briefly vortexed and incubated at room temperature for 5 minutes.
In a separate 1.5 mL microcentrifuge tube labelled “B”, 100 μL OptiMEM and plasmids XPD90Gal pCMXhFXRfl, pCMXhRXRfl+PGL3-ECRE*6-luc+CMX-YFP in the ratio 2 μg:2 μg:18 μg:3 μg were added. This microcentrifuge tube “B” was then briefly vortexed and incubated at room temperature for 5 minutes.
The total volume in tube labelled “A” was then transferred in to tube labelled “B.” The mixture was then briefly vortexed and the transfection:DNA complex was then incubated for about 15-20 minutes at room temperature.
Following incubation, the transfection reagent/DNA mixture complex was then added to cells in the T175 flask and the cells were incubated at […] (O/N) at 37° C. in 5% CO2.
In a 96 well plate, a half logarithmic serial dilution was prepared. OptiMEM was used as the diluent. Using any of one of the compounds described herein, a compound stock solution of 10 mM was prepared. An initial 1:100 dilution was made into the first well for a final concentration of 100 μM. The final concentrations in the 96-well plate was prepared by using a multichannel pipette to transfer 5 μL of the diluted compound to 384-well plate in quadruplicate.
Cells in T175 flask were trypsinized and cells were resuspended in 40 mL phenol red free DMEM+10% charcoal super-stripped FBS. Typically, one T175 flask was sufficient to seed two 384 well plates. CV-1 cells were seeded at 45 μL cell suspension/well using a multi-channel pipet or a 384 multidrop dispenser. The cells were then incubated for 18 hrs, overnight.
After removing the plates from the incubator, the medium was flicked out of plate and 384 well plate was turned upside down onto paper towel. The remaining medium was gently tapped out. 15 μL lysis buffer was then added to each well using a multichannel pipet or a 384 well multi-drop dispenser. After incubation for 10 minutes at room temperature on shaker, 30 μL Luciferase buffer was added to each well. Luminescence counts were taken immediately using the Perkin Elmer Envision.
The ability of the compounds disclosed herein to […] FXR activity was quantified and the respective EC50 value was determined. Fex=fexaramine.
A general note: Reporter assays use an easily measured gene product as a stand-in for the process of interest.

Assay [2] concerns the target T1, FXR. The assay is described as follows: In Vitro FXR Assay (TK): TK-ECRE-luc reporter in transfected CV-1 cells. The class given is cell-based. The note with it: CV-1 cells transfected with hFXR, hRXR, 18 h incubation, luminescence. The gist of the method:
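Luciferase read-out from lysed CV-1 cells exposed 18 h to DMSO-diluted compounds. Cells had been transfected overnight with expression plasmids for hFXR and hRXR plus TK-ECRE-luc reporter and pCMX-YFP, grown in charcoal-stripped serum at 37 °C, 5% CO2.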

As to `COC(=O)/C=C/c1cccc(N(Cc2ccc(-c3c(C)noc3C)cc2)C(=O)C2CCCCC2)c1` [compound 31, (E)-Methyl 3-(3-(N-(4-(3,5-dimethylisoxazol-4-yl)benzyl)cyclohexanecarboxamido)phenyl)acrylate], the “Cmpd/Fex (ratio of the EC50 for the test compound relative to the EC50 of the Fexaramine control)” value at FXR [1] is listed as “+ (‘+’ means Cmpd/Fex > 100)”. Besides, the EC50 (as a rule, the concentration needed to bring the measured effect to its halfway point) on FXR [2] lay in the range of 1 to 10 µM.
The like results for `COC(=O)/C=C/c1cccc(N(Cc2ccc(-c3ccc(OC(C)C)cc3)cc2)C(=O)C2CCCCC2)c1` [compound 32, (E)-Methyl 3-(3-(N-((4′-isopropoxy-[1,1′-biphenyl]-4-yl)methyl)cyclohexanecarboxamido)phenyl)acrylate] were, in that order, “++ (‘++’ means Cmpd/Fex > 10 & < 100)” and 1 to 10 µM.
Taken in the same sequence, the figures for `COC(=O)/C=C/c1cccc(N(Cc2ccc(-c3ccc(OC)cc3F)cc2)C(=O)C2CCCCC2)c1` [compound 33, (E)-Methyl 3-(3-(N-((2′-fluoro-4′-methoxy-[1,1′-biphenyl]-4-yl)methyl)cyclohexanecarboxamido)phenyl)acrylate] were “++ (‘++’ means Cmpd/Fex > 10 & < 100)” and 1 to 10 µM.
The like results for `COC(=O)/C=C/c1cccc(N(Cc2ccc(-c3ccc(Cl)cc3)cc2)C(=O)C2CCCCC2)c1` [compound 34, (E)-Methyl 3-(3-(N-((4′-chloro-[1,1′-biphenyl]-4-yl)methyl)cyclohexanecarboxamido)phenyl)acrylate] were, in that order, “+++ (‘+++’ means Cmpd/Fex < 10)” and 1 to 10 µM.
On to `COC(=O)/C=C/c1cccc(N(Cc2ccc(-c3cccc(C(F)(F)F)c3)cc2)C(=O)C2CCCCC2)c1` [compound 35, (E)-Methyl 3-(3-(N-((3′-(trifluoromethyl)-[1,1′-biphenyl]-4-yl)methyl)cyclohexanecarboxamido)phenyl)acrylate], for which the “Cmpd/Fex (ratio of the EC50 for the test compound relative to the EC50 of the Fexaramine control)” value on FXR [1] is “++ (‘++’ means Cmpd/Fex > 10 & < 100)”. Moreover, at FXR [2], the EC50 is 1 to 10 µM.
Taken in the same sequence, the figures for `COC(=O)/C=C/c1cccc(N(Cc2ccc(-c3ccc(C(F)(F)F)cc3)cc2)C(=O)C2CCCCC2)c1` [compound 36, (E)-Methyl 3-(3-(N-((4′-(trifluoromethyl)-[1,1′-biphenyl]-4-yl)methyl)cyclohexanecarboxamido)phenyl)acrylate] were “++ (‘++’ means Cmpd/Fex > 10 & < 100)” and 1 to 10 µM.
The like results for `COC(=O)/C=C/c1cccc(N(Cc2ccc(-c3cccc(N(C)C)c3)cc2)C(=O)C2CCCCC2)c1` [compound 37, (E)-Methyl 3-(3-(N-((3′-(dimethylamino)-[1,1′-biphenyl]-4-yl)methyl)cyclohexanecarboxamido)phenyl) acrylate] were, in that order, “++ (‘++’ means Cmpd/Fex > 10 & < 100)” and 1 to 10 µM.
The like results for `COC(=O)/C=C/c1cccc(N(Cc2ccc(-c3ccc(N(C)C)nc3)cc2)C(=O)C2CCCCC2)c1` [compound 38, (E)-Methyl 3-(3-(N-(4-(6-(dimethylamino)pyridin-3-yl)benzyl)cyclohexanecarboxamido)phenyl) acrylate] were, in that order, “+++ (‘+++’ means Cmpd/Fex < 10)” and at most 1 µM.
Regarding `COC(=O)/C=C/c1cc(C)cc(N(Cc2ccc(-c3ccc(N(C)C)cc3)cc2)C(=O)C2CCCCC2)c1` [compound 39, (E)-Methyl 3-(3-(N-((4′-(dimethylamino)-[1,1′-biphenyl]-4-yl)methyl)cyclohexanecarboxamido)-5-methylphenyl)acrylate], the “Cmpd/Fex (ratio of the EC50 for the test compound relative to the EC50 of the Fexaramine control)” value at FXR [1] is reported as “+++ (‘+++’ means Cmpd/Fex < 10)”. On FXR [2], this compound returned an EC50 of 1 to 10 µM.
Take `COC(=O)/C=C/c1cc(N(Cc2ccc(-c3ccc(N(C)C)cc3)cc2)C(=O)C2CCCCC2)ccc1C` [compound 40, (E)-Methyl 3-(5-(N-((4′-(dimethylamino)-[1,1′-biphenyl]-4-yl)methyl)cyclohexanecarboxamido)-2-methylphenyl)acrylate]: the “Cmpd/Fex (ratio of the EC50 for the test compound relative to the EC50 of the Fexaramine control)” value at FXR [1] is reported as “+ (‘+’ means Cmpd/Fex > 100)”. On FXR [2], this compound registered an EC50 of over 10 µM.
As to `COC(=O)/C=C/c1cccc(N(Cc2ccc(-c3ccc(N(C)C)cc3)cc2)C(=O)C2CCCCC2)c1C` [compound 41, (E)-Methyl 3-(3-(N-((4′-(dimethylamino)-[1,1′-biphenyl]-4-yl)methyl)cyclohexanecarboxamido)-2-methylphenyl)acrylate], the “Cmpd/Fex (ratio of the EC50 for the test compound relative to the EC50 of the Fexaramine control)” value at FXR [1] is listed as “++ (‘++’ means Cmpd/Fex > 10 & < 100)”. Also, at FXR [2], the EC50 was in the range of 1 to 10 µM.
Taken in the same sequence, the figures for `COC(=O)/C=C/c1ccc(C)c(N(Cc2ccc(-c3ccc(N(C)C)cc3)cc2)C(=O)C2CCCCC2)c1` [compound 42, (E)-Methyl 3-(3-(N-((4′-(dimethylamino)-[1,1′-biphenyl]-4-yl)methyl)cyclohexanecarboxamido)-4-methylphenyl)acrylate] were “+++ (‘+++’ means Cmpd/Fex < 10)” and 1 to 10 µM.
For the compound `COC(=O)CCc1cccc(N(Cc2ccc(-c3ccc(N(C)C)cc3)cc2)C(=O)C2CCCCC2)c1` [compound 43, Methyl 3-(3-(N-((4′-(dimethylamino)-[1,1′-biphenyl]-4-yl)methyl)cyclohexanecarboxamido)phenyl) propanoate], at FXR [1], the “Cmpd/Fex (ratio of the EC50 for the test compound relative to the EC50 of the Fexaramine control)” value is “++ (‘++’ means Cmpd/Fex > 10 & < 100)”. Besides, the EC50 at FXR [2] lay within 1 to 10 µM.
The like results for `COC/C=C/c1cccc(N(Cc2ccc(-c3ccc(N(C)C)cc3)cc2)C(=O)C2CCCCC2)c1` [compound 44, (E)-N-((4′-(Dimethylamino)-[1,1′-biphenyl]-4-yl)methyl)-N-(3-(3-methoxyprop-1-en-1-yl)phenyl)cyclohexanecarboxamide] were, in that order, “+++ (‘+++’ means Cmpd/Fex < 10)” and 1 to 10 µM.
Taken in the same sequence, the figures for `COC(=O)/C=C(\C)c1cccc(N(Cc2ccc(-c3ccc(N(C)C)cc3)cc2)C(=O)C2CCCCC2)c1` [compound 45, (E)-Methyl 3-(3-(N-((4′-(dimethylamino)-[1,1′-biphenyl]-4-yl)methyl)cyclohexanecarboxamido)phenyl)but-2-enoate] were “+++ (‘+++’ means Cmpd/Fex < 10)” and 1 to 10 µM.
